Results reported in PubChem BioAssay (NCI).
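Here, GI50 denotes the concentration required for 50% inhibition of growth. TGI is the concentration that stops growth completely.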

Assays:
Experiment in all cases: NCI-60 cell line screen, 384-well format
OVCAR-3 ovarian = tested on: OVCAR-3 ovarian
UO-31 renal = tested on: UO-31 renal
SNB-19 CNS = tested on: SNB-19 CNS
ACHN renal = tested on: ACHN renal
EKVX NSCLC = tested on: EKVX NSCLC
NCI-H23 lung = tested on: NCI-H23 lung
UACC-257 melanoma = tested on: UACC-257 melanoma
A549 NSCLC = tested on: A549 NSCLC
OVCAR-8 ovarian = tested on: OVCAR-8 ovarian
TK-10 renal = tested on: TK-10 renal
CCRF-CEM leukemia = tested on: CCRF-CEM leukemia
NCI-H522 lung = tested on: NCI-H522 lung
SF-539 CNS = tested on: SF-539 CNS
HCT-15 colon = tested on: HCT-15 colon
K-562 leukemia = tested on: K-562 leukemia
HOP-92 NSCLC = tested on: HOP-92 NSCLC
UACC-62 melanoma = tested on: UACC-62 melanoma
RXF 393 renal = tested on: RXF 393 renal
BT-549 breast = tested on: BT-549 breast
SN12C renal = tested on: SN12C renal
RPMI-8226 leukemia = tested on: RPMI-8226 leukemia
MDA-MB-231 breast = tested on: MDA-MB-231 breast
OVCAR-4 ovarian = tested on: OVCAR-4 ovarian
SK-MEL-28 melanoma = tested on: SK-MEL-28 melanoma
PC-3 prostate = tested on: PC-3 prostate
OVCAR-5 ovarian = tested on: OVCAR-5 ovarian
SK-MEL-2 melanoma = tested on: SK-MEL-2 melanoma
LOX IMVI melanoma = tested on: LOX IMVI melanoma
HOP-62 NSCLC = tested on: HOP-62 NSCLC
DU-145 prostate = tested on: DU-145 prostate
SNB-75 CNS = tested on: SNB-75 CNS
SF-268 CNS = tested on: SF-268 CNS
HL-60(TB) leukemia = tested on: HL-60(TB) leukemia
HS 578T breast = tested on: HS 578T breast
SW-620 colon = tested on: SW-620 colon
MOLT-4 leukemia = tested on: MOLT-4 leukemia
M14 melanoma = tested on: M14 melanoma
NCI-H322M lung = tested on: NCI-H322M lung
MDA-MB-435 melanoma = tested on: MDA-MB-435 melanoma
MALME-3M melanoma = tested on: MALME-3M melanoma
MDA-MB-468 breast = tested on: MDA-MB-468 breast

Structure (SMILES): CO[C@H](C(=O)[C@@H](O)[C@@H](C)O)[C@@H]1Cc2cc3cc(OC4CC(OC5CC(O)C(O)C(C)O5)C(O)C(C)O4)c(C)c(O)c3c(O)c2C(=O)[C@H]1OC1CC(OC2CC(OC3CC(C)(O)C(O)C(C)O3)C(O)C(C)O2)C(O)C(C)O1 (some centres undefined)
- GI50 (OVCAR-3 ovarian): 20.3 nM
- TGI (OVCAR-3 ovarian): 73.4 nM
- GI50 (UO-31 renal): 182 nM
- TGI (UO-31 renal): 451 nM
- GI50 (SNB-19 CNS): 23.7 nM
- GI50 (ACHN renal): 54.6 nM
- TGI (ACHN renal): 294 nM
- GI50 (EKVX NSCLC): 75.1 nM
- TGI (EKVX NSCLC): 11000 nM
- GI50 (NCI-H23 lung): 18.4 nM
- TGI (NCI-H23 lung): 35.9 nM
- GI50 (UACC-257 melanoma): 18.5 nM
- TGI (UACC-257 melanoma): 34.5 nM
- GI50 (A549 NSCLC): 30.4 nM
- GI50 (OVCAR-8 ovarian): 15.5 nM
- TGI (OVCAR-8 ovarian): 29.9 nM
- GI50 (TK-10 renal): 50.3 nM
- GI50 (CCRF-CEM leukemia): 33.9 nM
- TGI (CCRF-CEM leukemia): 110 nM
- GI50 (NCI-H522 lung): 13 nM
- TGI (NCI-H522 lung): 26.8 nM
- GI50 (SF-539 CNS): 13.6 nM
- TGI (SF-539 CNS): 27.1 nM
- GI50 (HCT-15 colon): 139 nM
- TGI (HCT-15 colon): 970 nM
- GI50 (K-562 leukemia): 18.8 nM
- TGI (K-562 leukemia): 40.4 nM
- GI50 (HOP-92 NSCLC): 31.7 nM
- TGI (UACC-62 melanoma): 21.6 nM
- GI50 (RXF 393 renal): 10.7 nM
- TGI (RXF 393 renal): 23.1 nM
- GI50 (BT-549 breast): 10.6 nM
- TGI (BT-549 breast): 23.7 nM
- GI50 (SN12C renal): 15.2 nM
- TGI (SN12C renal): 36.9 nM
- GI50 (RPMI-8226 leukemia): 11.1 nM
- TGI (RPMI-8226 leukemia): 23.6 nM
- GI50 (MDA-MB-231 breast): 16.6 nM
- TGI (MDA-MB-231 breast): 37.2 nM
- GI50 (OVCAR-4 ovarian): 31.6 nM
- TGI (OVCAR-4 ovarian): 371 nM
- GI50 (SK-MEL-28 melanoma): 16.4 nM
- TGI (SK-MEL-28 melanoma): 30.5 nM
- GI50 (PC-3 prostate): 32.9 nM
- TGI (PC-3 prostate): 220 nM
- GI50 (OVCAR-5 ovarian): 19.5 nM
- TGI (OVCAR-5 ovarian): 43.5 nM
- GI50 (SK-MEL-2 melanoma): 32.9 nM
- TGI (SK-MEL-2 melanoma): 47.9 nM
- GI50 (LOX IMVI melanoma): 16.9 nM
- TGI (LOX IMVI melanoma): 31.2 nM
- GI50 (HOP-62 NSCLC): 13.7 nM
- TGI (HOP-62 NSCLC): 29.5 nM
- GI50 (DU-145 prostate): 28.8 nM
- GI50 (SNB-75 CNS): 11.8 nM
- TGI (SNB-75 CNS): 30.4 nM
- GI50 (SF-268 CNS): 17.2 nM
- TGI (SF-268 CNS): 965 nM
- GI50 (HL-60(TB) leukemia): 14 nM
- TGI (HL-60(TB) leukemia): 29.4 nM
- GI50 (HS 578T breast): 13.2 nM
- TGI (HS 578T breast): 27.7 nM
- GI50 (SW-620 colon): 32.4 nM
- TGI (MOLT-4 leukemia): 17.7 nM
- GI50 (M14 melanoma): 18 nM
- TGI (M14 melanoma): 39.8 nM
- GI50 (NCI-H322M lung): 17.4 nM
- TGI (NCI-H322M lung): 42.2 nM
- GI50 (MDA-MB-435 melanoma): 18.9 nM
- TGI (MDA-MB-435 melanoma): 38.4 nM
- GI50 (MALME-3M melanoma): 14.1 nM
- TGI (MALME-3M melanoma): 28 nM
- GI50 (MDA-MB-468 breast): 16.3 nM
- TGI (MDA-MB-468 breast): 32.4 nM
